Experimental data from publication PMC6694100, “The complex of ferric-enterobactin with its transporter from Pseudomonas aeruginosa suggests a two-site model” (Nature Communications, 2019).
Where “and” joins values, the source holds several entries; their conditions need not be identical. Equal entries are not always repeated.

What was measured:
pfeA gene = assay: RT-qPCR of pfeA gene transcription in strains grown with 10 µM enterobactin; type: cell-based, Pseudomonas aeruginosa; details: replicate values, Figure 6a
Description: Fig. 6 Effects of PfeA mutation in vivo. a Analysis of changes in the transcription of pfeA gene. PAO1 strain, its corresponding deletion mutant ∆pfeA and deletion mutants carrying the expression plasmid of PfeA wild-type (∆pfeA(pMMBpfeA) or the R480A-Q482A mutant (∆pfeA(pMMBpfeAR480AQ482A)) were grown in CAA medium supplemented with 10 µM enterobactin. The data were normalised relative to the reference gene uvrD, and are representative of three independent experiments performed in triplicate (n = 3). The results are given as a ratio between the values obtained for ∆pfeA, ∆pfeA(pMMBpfeA) and ∆pfeA(pMMBpfeAR480AQ482A) over those obtained for the PAO1 strain. b ^55Fe-enterobactin binding at the bacterial surface. Cells were grown as in panel a, and were incubated for 15 min with 200 µM CCCP before initiation of transport assays by the addition of 500 nM ^55Fe-enterobactin. After 30 min incubation, the radioactivity accumulated in the bacteria was counted. The results are expressed as pmol of ^55Fe-enterobactin bound per ml of cells at an OD600 of 1. The experiments have been repeated three times. c ^55Fe-enterobactin binding and uptake. Cells were grown as in panel a, and were incubated with or without 200 µM CCCP before initiation of transport assays by the addition of 500 nM ^55Fe-enterobactin. After 30 min incubations, the radioactivity accumulated in the bacteria was counted. The results are expressed as pmol of ^55Fe-enterobactin bound and transported per ml of cells at an OD600 of 1. The experiments have been repeated three times […]
Specific pfeA gene transcription was measured by reverse transcription-quantitative PCR (RT-qPCR) from 16 h cultures in CAA medium as described in Supplementary Methods. […]
The supernatant […]
was discarded, and inner membrane proteins were solubilized in lysis buffer with 1% (w/v) N-lauroylsarkosine (Sigma-Aldrich). […]
Quantitative real-time PCR. […] The amounts of specific cDNA were assessed in a StepOne Plus instrument (Applied Biosystems) by using a Power Sybr Green PCR Master Mix […]

[1] = system: ∆pfeA(pMMBpfeAR480AQ482A) cells (double-mutant PfeA); assay: 55Fe-enterobactin binding and uptake assay, ∆pfeA(pMMBpfeAR480AQ482A); type: cell-based, Pseudomonas aeruginosa; details: 500 nM ^55Fe-enterobactin, 30 min
Description: (§1) Fig. 6 Effects of PfeA mutation in vivo. a Analysis of changes in the transcription of pfeA gene. PAO1 strain, its corresponding deletion mutant ∆pfeA and deletion mutants carrying the expression plasmid of PfeA wild-type (∆pfeA(pMMBpfeA) or the R480A-Q482A mutant (∆pfeA(pMMBpfeAR480AQ482A)) were grown in CAA medium supplemented with 10 µM enterobactin. The data were normalised relative to the reference gene uvrD, and are representative of three independent experiments performed in triplicate (n = 3). The results are given as a ratio between the values obtained for ∆pfeA, ∆pfeA(pMMBpfeA) and ∆pfeA(pMMBpfeAR480AQ482A) over those obtained for the PAO1 strain. b ^55Fe-enterobactin binding at the bacterial surface. Cells were grown as in panel a, and were incubated for 15 min with 200 µM CCCP before initiation of transport assays by the addition of 500 nM ^55Fe-enterobactin. After 30 min incubation, the radioactivity accumulated in the bacteria was counted. The results are expressed as pmol of ^55Fe-enterobactin bound per ml of cells at an OD600 of 1. The experiments have been repeated three times. c ^55Fe-enterobactin binding and uptake. Cells were grown as in panel a, and were incubated with or without 200 µM CCCP before initiation of transport assays by the addition of 500 nM ^55Fe-enterobactin. After 30 min incubations, the radioactivity accumulated in the bacteria was counted. The results are expressed as pmol of ^55Fe-enterobactin bound and transported per ml of cells at an OD600 of 1. The experiments have been repeated three times
(§2) The complex was prepared at ^55Fe concentrations of 50 μM, with a siderophore:iron (mol:mol) ratio of 20:1. P. aeruginosa strains were first grown overnight at 30 °C in LB broth, and were then washed, resuspended and cultured overnight at 30 °C in iron-deficient CAA medium (casamino acid medium, composition: 5 g.l^−1 low-iron CAA (Difco), 1.46 g.l^−1 K2HPO4 3H2O, 0.25 g.l^−1 MgSO4 7H2O) and in the presence of 10 µM enterobactin to induce the expression of PfeA. CAA is a highly iron-restricted medium with iron concentrations of 20 nM[59]. Afterwards bacteria were washed with 50 mM Tris-HCl pH 8.0, and diluted to an OD600 of 1. Cells solutions were divided in two, one batch being treated with 200 μM CCCP. This compound collapses the proton-motive force across the bacterial cell membranes, inhibiting TonB-dependent iron uptake. Binding and transport assays were initiated by adding 500 nM ^55Fe-enterobactin to the bacterial solutions treated or not with CCCP. After 30 min of incubations, cells were centrifuged, and the radioactivity associated to the bacteria was monitored in the cell pellets. For the cells treated with CCCP, the radioactivity in the cell pellets corresponds to the binding of ^55Fe-enterobactin to P. aeruginosa cell surface, since no uptake occurs. In the absence of CCCP, the radioactivity associated to the cells corresponds to ^55Fe-enterobactin binding to the cell surface and the uptake into the bacteria.

[2] = parameters: method as in doi:10.1021/ja00514a037, PMID 12453412; details: cited from earlier work
[3] = system: ∆pfeA(pMMBpfeA) cells (native PfeA); assay: 55Fe-enterobactin binding and uptake assay, ∆pfeA(pMMBpfeA); type: cell-based, Pseudomonas aeruginosa; details: cells not treated with CCCP, 500 nM ^55Fe-enterobactin, 30 min
Description: as §1, §2

SMILES: O=C(N[C@H]1COC(=O)[C@@H](NC(=O)c2cccc(O)c2O)COC(=O)[C@@H](NC(=O)c2cccc(O)c2O)COC1=O)c1cccc(O)c1O [Enterobactin, enterobactin]
- pfeA gene transcription (RT-qPCR) (pfeA gene; strain ΔpfeA (pMMBpfeA R480AQ482A)): 105.534 and 104.018 and 99.7495 and 101.79 and 78.5683 and 111.303 and 100.693 and 97.5736 and 107.445
- pfeA gene transcription (RT-qPCR) (pfeA gene; strain ΔpfeA (pMMBpfeA)): 181.293 and 171.592 and 180.688 and 175.586 and 141.721 and 155.679 and 152.232 and 181.628 and 183.778
- pfeA gene transcription (RT-qPCR) (pfeA gene; strain ΔpfeA): 0.006806 and 0.03712 and 0.02449 and 0.03211 and 0.01571 and 0.01618 and 0.0116 and 0.02148 and 0.01134
- ^55Fe-enterobactin binding at the bacterial surface ([1]; CCCP treated cells (200 µM)): does not bind
- ^55Fe-enterobactin binding and uptake ([1]; cells not treated with CCCP): not competent for the uptake
- stability when not bound to iron [2]: easily degraded
- ^55Fe-enterobactin binding and uptake [3]: actively taken up
